From PubChem BioAssay (NCI)
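Where inhibition never reached the appropriate level, the endpoint shown equals the highest concentration tested. Otherwise, values were interpolated linearly from a five-concentration, 48-hour dose response in 96-well plates. GI50: concentration for 50% inhibition of growth. TGI marks complete inhibition of growth.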

Columns and labels:
Experiment in all cases: inhibition of tumour cell growth, NCI panel, 48 h
786-0 renal = system: 786-0 renal
A498 renal = system: A498 renal
A549 NSCLC = system: A549 NSCLC
ACHN renal = system: ACHN renal
BT-549 breast = system: BT-549 breast
CAKI-1 renal = system: CAKI-1 renal
CCRF-CEM leukemia = system: CCRF-CEM leukemia
COLO 205 colon = system: COLO 205 colon
DU-145 prostate = system: DU-145 prostate
EKVX NSCLC = system: EKVX NSCLC
HCC-2998 colon = system: HCC-2998 colon
HCT-116 colon = system: HCT-116 colon
HCT-15 colon = system: HCT-15 colon
HOP-62 NSCLC = system: HOP-62 NSCLC
HOP-92 NSCLC = system: HOP-92 NSCLC
HS 578T breast = system: HS 578T breast
HT29 colon = system: HT29 colon
IGROV1 ovarian = system: IGROV1 ovarian
K-562 leukemia = system: K-562 leukemia
KM12 colon = system: KM12 colon
LOX IMVI melanoma = system: LOX IMVI melanoma
M14 melanoma = system: M14 melanoma
MALME-3M melanoma = system: MALME-3M melanoma
MCF7 breast = system: MCF7 breast
MDA-MB-231 breast = system: MDA-MB-231 breast
MDA-MB-435 = system: MDA-MB-435
MOLT-4 leukemia = system: MOLT-4 leukemia
NCI-H226 lung = system: NCI-H226 lung
NCI-H460 lung = system: NCI-H460 lung
NCI-H522 lung = system: NCI-H522 lung
NCI/ADR-RES ovarian = system: NCI/ADR-RES ovarian
OVCAR-3 ovarian = system: OVCAR-3 ovarian
OVCAR-4 ovarian = system: OVCAR-4 ovarian
OVCAR-5 ovarian = system: OVCAR-5 ovarian
OVCAR-8 ovarian = system: OVCAR-8 ovarian
PC-3 prostate = system: PC-3 prostate
RPMI-8226 leukemia = system: RPMI-8226 leukemia
RXF 393 renal = system: RXF 393 renal
SF-268 CNS = system: SF-268 CNS
SF-295 CNS = system: SF-295 CNS
SF-539 CNS = system: SF-539 CNS
SK-MEL-2 melanoma = system: SK-MEL-2 melanoma
SK-MEL-28 melanoma = system: SK-MEL-28 melanoma
SK-MEL-5 melanoma = system: SK-MEL-5 melanoma
SK-OV-3 ovarian = system: SK-OV-3 ovarian
SN12C renal = system: SN12C renal
SNB-19 CNS = system: SNB-19 CNS
SNB-75 CNS = system: SNB-75 CNS
SR leukemia = system: SR leukemia
SW-620 colon = system: SW-620 colon
T-47D breast = system: T-47D breast
TK-10 renal = system: TK-10 renal
U251 CNS = system: U251 CNS
UACC-257 melanoma = system: UACC-257 melanoma
UACC-62 melanoma = system: UACC-62 melanoma
UO-31 renal = system: UO-31 renal

COc1ccc(C2C(C#N)=C(N)Oc3c2sc2ccc(C)cc32)cc1 (configuration not stated)
GI50 (786-0 renal): 3.64 µM | TGI (786-0 renal): 15.1 µM | GI50 (A498 renal): 47 µM | TGI (A498 renal): > 100 µM | GI50 (A549 NSCLC): 6.94 µM | TGI (A549 NSCLC): > 100 µM | GI50 (ACHN renal): 6.44 µM | TGI (ACHN renal): > 100 µM | GI50 (BT-549 breast): 2.7 µM | TGI (BT-549 breast): 7.68 µM | GI50 (CAKI-1 renal): 3.52 µM | TGI (CAKI-1 renal): 56.4 µM | GI50 (CCRF-CEM leukemia): 3.78 µM | TGI (CCRF-CEM leukemia): > 100 µM | GI50 (COLO 205 colon): 3.7 µM | TGI (COLO 205 colon): > 100 µM | GI50 (DU-145 prostate): 7.08 µM | TGI (DU-145 prostate): > 100 µM | GI50 (EKVX NSCLC): 7.35 µM | TGI (EKVX NSCLC): > 100 µM | GI50 (HCC-2998 colon): 6.37 µM | TGI (HCC-2998 colon): > 100 µM | GI50 (HCT-116 colon): 3.68 µM | TGI (HCT-116 colon): 83.9 µM | GI50 (HCT-15 colon): 3.35 µM | TGI (HCT-15 colon): > 100 µM | GI50 (HOP-62 NSCLC): 3.71 µM | TGI (HOP-62 NSCLC): 28.1 µM | GI50 (HOP-92 NSCLC): 1.05 µM | TGI (HOP-92 NSCLC): 7.07 µM | GI50 (HS 578T breast): 3.31 µM | TGI (HS 578T breast): 36.8 µM | GI50 (HT29 colon): 3.14 µM | TGI (HT29 colon): 9.79 µM | GI50 (IGROV1 ovarian): 4.64 µM | TGI (IGROV1 ovarian): > 100 µM | GI50 (K-562 leukemia): 1.56 µM | TGI (K-562 leukemia): > 100 µM | GI50 (KM12 colon): 3.81 µM | TGI (KM12 colon): > 100 µM | GI50 (LOX IMVI melanoma): 5.92 µM | TGI (LOX IMVI melanoma): > 100 µM | GI50 (M14 melanoma): 2.84 µM | TGI (M14 melanoma): 14.6 µM | GI50 (MALME-3M melanoma): 3.56 µM | TGI (MALME-3M melanoma): 62.3 µM | GI50 (MCF7 breast): 1.25 µM | TGI (MCF7 breast): > 100 µM | GI50 (MDA-MB-231 breast): 9.6 µM | TGI (MDA-MB-231 breast): 86.7 µM | GI50 (MDA-MB-435): 0.568 µM | TGI (MDA-MB-435): 2.17 µM | GI50 (MOLT-4 leukemia): 3.63 µM | TGI (MOLT-4 leukemia): > 100 µM | GI50 (NCI-H226 lung): 3.92 µM | TGI (NCI-H226 lung): 57.5 µM | GI50 (NCI-H460 lung): 3.41 µM | TGI (NCI-H460 lung): 18.3 µM | GI50 (NCI-H522 lung): 1.24 µM | TGI (NCI-H522 lung): 4.48 µM | GI50 (NCI/ADR-RES ovarian): 3.34 µM | TGI (NCI/ADR-RES ovarian): > 100 µM | GI50 (OVCAR-3 ovarian): 3.71 µM | TGI (OVCAR-3 ovarian): > 100 µM | GI50 (OVCAR-4 ovarian): 8.07 µM | TGI (OVCAR-4 ovarian): > 100 µM | GI50 (OVCAR-5 ovarian): 5.77 µM | TGI (OVCAR-5 ovarian): > 100 µM | GI50 (OVCAR-8 ovarian): 9.93 µM | TGI (OVCAR-8 ovarian): > 100 µM | GI50 (PC-3 prostate): 3.46 µM | TGI (PC-3 prostate): > 100 µM | GI50 (RPMI-8226 leukemia): 3.95 µM | TGI (RPMI-8226 leukemia): > 100 µM | GI50 (RXF 393 renal): 2.64 µM | TGI (RXF 393 renal): 9.98 µM | GI50 (SF-268 CNS): 5.24 µM | TGI (SF-268 CNS): > 100 µM | GI50 (SF-295 CNS): 3.93 µM | TGI (SF-295 CNS): 28.6 µM | GI50 (SF-539 CNS): 3.21 µM | TGI (SF-539 CNS): 13.4 µM | GI50 (SK-MEL-2 melanoma): 2.2 µM | TGI (SK-MEL-2 melanoma): 7.49 µM | GI50 (SK-MEL-28 melanoma): 5.86 µM | TGI (SK-MEL-28 melanoma): > 100 µM | GI50 (SK-MEL-5 melanoma): 10.7 µM | TGI (SK-MEL-5 melanoma): > 100 µM | GI50 (SK-OV-3 ovarian): 5.2 µM | TGI (SK-OV-3 ovarian): 54.8 µM | GI50 (SN12C renal): 4.46 µM | TGI (SN12C renal): > 100 µM | GI50 (SNB-19 CNS): 6.01 µM | TGI (SNB-19 CNS): 86.7 µM | GI50 (SNB-75 CNS): 1.9 µM | TGI (SNB-75 CNS): 5.51 µM | GI50 (SR leukemia): 2.42 µM | TGI (SR leukemia): > 100 µM | GI50 (SW-620 colon): 2.81 µM | TGI (SW-620 colon): > 100 µM | GI50 (T-47D breast): 3.13 µM | TGI (T-47D breast): > 100 µM | GI50 (TK-10 renal): 23 µM | TGI (TK-10 renal): > 100 µM | GI50 (U251 CNS): 3.78 µM | TGI (U251 CNS): 27.5 µM | GI50 (UACC-257 melanoma): 4.03 µM | TGI (UACC-257 melanoma): > 100 µM | GI50 (UACC-62 melanoma): 3.26 µM | TGI (UACC-62 melanoma): 49.9 µM | GI50 (UO-31 renal): 3.56 µM | TGI (UO-31 renal): > 100 µM
